Measured values from PMC10924921, “Mi-2β promotes immune evasion in melanoma by activating EZH2 methylation” (Nature Communications, 2024).

Legend:
[1] = molecular target: recombinant purified human Mi-2β protein (Homo sapiens, UniProt Q14839); assay: FRET-based nucleosome repositioning assay (EpiDyne-FRET); conditions: read-out: apparent ATP Km; ATP titration 0.1 to 300 µM, 12.5 nM Mi-2β, 15 minutes
[2] = test system: BRafV600E/Ptennull melanoma cells with or without Mi-2β; assay: CCK-8 proliferation after Braf inhibitor; type: cell-based, mouse; conditions: 10 μM, 24 h
Method: To test whether Mi-2β deficiency affects the sensitivity of tumor cells to Braf inhibitors, melanoma cells were isolated from Tyr::CreER;BRaf^CA;Pten^lox/lox and Tyr::CreER;BRaf^CA;Pten^lox/lox; Mi-2β^lox/lox mice and a cell proliferation assay was performed. BRAF mutation and Mi-2β-depleted melanoma cells or BRAF mutation melanoma cells (5 × 10^3 cells/100 μl) were cultured with 10 μM PLX4032 (Selleck, China) for 24 h and cell proliferation of melanoma cells were determined using the CCK-8 assay.
Supplementary Figure 2. […] Scale bar=200 µm. b Tumor-infiltrating lymphocytes were assayed by flow cytometry. c Treg cells within CD45+ T cells in TILs were assayed and quantified by flow cytometry.
(n=5). d Melanomas isolated from BRafV600E/Ptennull mice and BRafV600E/Ptennull /Mi-2βnull mice were processed for immunohistochemistry staining to detect the number of CD8+ T cells. […] Melanoma cells isolated from Tyr::CreER;BRafCA;Ptenlox/lox and Tyr::CreER;BRafCA;Ptenlox/lox;Mi-2βlox/lox mice were treated with PLX4032 (10μM) for 24 hours and cell proliferation was determined by CCK-8 assay (n=6). c, e, f: Values represent mean ± SD. […]

[3] = test system: PC3 prostate cancer cells; design: method as in Shubhada Sharma, et al., Biochemistry 2013; conditions: ref Shubhada Sharma, et al., Biochemistry 2013; read-out: IC50, cytotoxicity; cited from earlier work
melanoma = conditions: cited from earlier work

Sequence of recombinant purified human Mi-2β protein (Q14839 whole entry): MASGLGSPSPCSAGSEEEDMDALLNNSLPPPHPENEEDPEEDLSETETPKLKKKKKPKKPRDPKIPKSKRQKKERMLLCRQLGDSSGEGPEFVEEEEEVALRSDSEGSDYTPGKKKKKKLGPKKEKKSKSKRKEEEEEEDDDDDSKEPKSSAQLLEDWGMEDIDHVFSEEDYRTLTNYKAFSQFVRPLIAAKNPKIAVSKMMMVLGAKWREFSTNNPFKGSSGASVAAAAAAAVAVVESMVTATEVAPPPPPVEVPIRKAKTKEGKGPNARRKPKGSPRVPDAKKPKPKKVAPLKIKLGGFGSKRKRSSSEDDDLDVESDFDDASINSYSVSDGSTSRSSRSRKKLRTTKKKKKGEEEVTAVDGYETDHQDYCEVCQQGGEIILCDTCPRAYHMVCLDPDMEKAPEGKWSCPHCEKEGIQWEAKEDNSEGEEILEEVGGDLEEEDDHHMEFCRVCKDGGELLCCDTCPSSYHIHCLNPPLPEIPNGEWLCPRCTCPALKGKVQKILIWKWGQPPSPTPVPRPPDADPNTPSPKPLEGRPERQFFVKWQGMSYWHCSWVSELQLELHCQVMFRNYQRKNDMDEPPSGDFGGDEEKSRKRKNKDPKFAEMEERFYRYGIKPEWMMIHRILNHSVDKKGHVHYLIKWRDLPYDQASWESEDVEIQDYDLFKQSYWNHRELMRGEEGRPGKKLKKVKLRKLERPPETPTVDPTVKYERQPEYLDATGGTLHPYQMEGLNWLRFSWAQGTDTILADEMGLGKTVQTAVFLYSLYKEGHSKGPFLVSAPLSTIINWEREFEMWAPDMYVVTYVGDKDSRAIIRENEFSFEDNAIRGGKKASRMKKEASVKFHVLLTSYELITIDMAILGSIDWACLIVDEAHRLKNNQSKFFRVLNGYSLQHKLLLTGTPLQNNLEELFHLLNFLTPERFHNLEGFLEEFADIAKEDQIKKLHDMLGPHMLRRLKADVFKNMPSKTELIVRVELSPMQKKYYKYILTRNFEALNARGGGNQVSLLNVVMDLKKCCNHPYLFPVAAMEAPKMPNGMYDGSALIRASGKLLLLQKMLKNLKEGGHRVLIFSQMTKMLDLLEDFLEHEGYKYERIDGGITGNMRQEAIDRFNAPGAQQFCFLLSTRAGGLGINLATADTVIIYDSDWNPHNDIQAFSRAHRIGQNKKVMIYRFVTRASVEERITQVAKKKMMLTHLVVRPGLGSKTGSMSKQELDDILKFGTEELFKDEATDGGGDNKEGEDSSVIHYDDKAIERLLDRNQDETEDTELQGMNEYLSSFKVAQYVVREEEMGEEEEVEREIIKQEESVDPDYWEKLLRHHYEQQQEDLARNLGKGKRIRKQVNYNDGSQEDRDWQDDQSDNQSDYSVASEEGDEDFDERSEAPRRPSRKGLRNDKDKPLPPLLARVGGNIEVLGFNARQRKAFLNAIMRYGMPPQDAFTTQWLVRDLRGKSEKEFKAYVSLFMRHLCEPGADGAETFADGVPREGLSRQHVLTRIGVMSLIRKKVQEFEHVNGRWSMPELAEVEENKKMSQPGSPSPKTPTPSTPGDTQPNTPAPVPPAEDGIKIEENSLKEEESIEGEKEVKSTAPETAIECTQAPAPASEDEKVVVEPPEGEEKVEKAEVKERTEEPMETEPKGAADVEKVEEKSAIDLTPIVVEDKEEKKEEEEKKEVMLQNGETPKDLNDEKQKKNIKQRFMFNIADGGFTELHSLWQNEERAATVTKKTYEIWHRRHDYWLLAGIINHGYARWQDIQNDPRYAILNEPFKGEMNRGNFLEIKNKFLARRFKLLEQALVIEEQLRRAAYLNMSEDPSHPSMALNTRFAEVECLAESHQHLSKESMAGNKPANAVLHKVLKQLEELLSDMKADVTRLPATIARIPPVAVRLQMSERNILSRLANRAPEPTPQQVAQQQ

Compound `Nc1ncnc2c1ncn2[C@@H]1O[C@H](COP(=O)(O)OP(=O)(O)OP(=O)(O)O)[C@@H](O)[C@H]1O` [ATP] has a Km [1] of 11.5 µM.
With `CCCS(=O)(=O)Nc1ccc(F)c(C(=O)c2c[nH]c3ncc(-c4ccc(Cl)cc4)cc23)c1F` [PLX4032] the “cell survival in melanoma cells with or without Mi-2β expression” value [2] was “no difference in cell survival”.
For `CC(=O)O[C@H]1C(=O)[C@@]2(C)[C@H]([C@H](OC(=O)c3ccccc3)[C@]3(O)C[C@H](OC(=O)[C@H](O)[C@@H](NC(=O)c4ccccc4)c4ccccc4)C(C)=C1C3(C)C)[C@]1(OC(C)=O)CO[C@@H]1C[C@@H]2O` [paclitaxel], the IC50 [3] is given as 1.41 nM.
For ipilimumab: anti-CTLA-4 antibody, the “melanoma patients that respond” value (melanoma) is given as 20%.
For pembrolizumab: anti-PD-1 antibody, the “melanoma patients that respond” value (melanoma) is listed as 33%.
